From patent US20220089638A1, “DITHIOCARBAMATE STAPLED PEPTIDES AND METHODS OF MAKING AND USE THEREOF” (UNIVERSITY OF MARYLAND, BALTIMORE, priority 2019, published 2022)
Where a SMILES comes first, the peptide text is derived from it. Bridges are numbered along the chain shown (N, C = ends). [ ]: non-standard residue; d: D form. S5 = C=CCCC[C@](C)(N)C(=O)O

Experiments:
HCT116 p53^+/+ cells [1] = assay: Cellular uptake by confocal microscopy; type: cell-based, human; settings: FITC-labeled peptide, 20 μM, 4 h
Experimental: Cellular uptake of ^DTCPMI. […] Cells were then incubated with 20 μM FITC-^DTCPMI Ctrl. or FITC-^DTCPMI for 4 h. Cells were washed with Dulbecco's phosphate buffered saline, fixed with 4% (wt/vol) paraformaldehyde, finally incubated by DAPI to stain the cell nucleus. Imaged using an LSM 510 Zeiss Axiovert 200M (v4.0) confocal microscope. Images were analyzed using an LSM image browser.

HCT116 p53^+/+ cells [2] = assay: Cell apoptosis assay (annexin V-FITC/PI flow cytometry), HCT116 p53+/+; type: cell-based, human; settings: 10, 20, or 30 μM
Experimental: (§1) Cell Apoptosis Assay. […] No treatment controls were established. Culture medium that may contain detached cells was collected, and attached cells were trypsinized. After centrifugation and removal of the supernatants, cells were resuspended in 300 μL of 1×binding buffer which was then added to 5 μL of annexin V-FITC and incubated at room temperature for 15 min. After addition of 10 μL of PI, the cells were incubated at room temperature for another 10 min in the dark. The stained cells were analyzed by a flow cytometer (BD-FACSVerse).

[3] = tested on: p53, MDM2 and p21 in HCT116 p53^+/+ cells; assay: Western blot analysis of MDM2, p21 and p53 expression; type: cell-based, human; settings: 8 h after treatment, 10, 20, 30 μM
Experimental: Western Blot Analysis. […] The cells were lysed (20 mM Tris-HCl pH 8.0, 0.8% SDS, 1 mM PMSF, 1 U mL^−1 benzonase nuclease) and the crude lysates were clarified by brief centrifugation and total protein concentration was determined by using the Pierce BCA protein assay. Aliquots containing 5 μg of total protein were run on 4-12% Bis-Tris polyacrylamide gels (Invitrogen).

HCT116 p53^−/− cells = assay: Cell apoptosis assay (annexin V-FITC/PI flow cytometry), HCT116 p53-/-; type: cell-based, human; settings: identical treatment conditions, 10, 20, or 30 μM
Experimental: as §1

HCT116 p53^−/− = assay: Cell viability assay (CCK8), HCT116 p53-/-; type: cell-based, human; settings: 100 μM
Experimental: Cell Viability Assay. […] The absorbance at 450 nm was then measured followed by the addition of CCK8 kit, and percent cell viability was calculated on the ratio of the A450 of sample wells versus reference wells.

[4] = Circular dichroism spectroscopy, percent α-helix; type: physicochemical; settings: CD spectroscopy
From the text: Circular Dichroism (CD) Spectroscopy.

[5] = Comparison of solubility between DTC and hydrocarbon link (OD 600 nm in PBS); type: physicochemical; settings: PBS buffer, 2-fold serial dilution from 20 mg/ml, OD at 600 nm
Experimental: Comparison of Solubility between DTC and Hydrocarbon link. […] OD values were measured at 600 nm on a Biotech Synergy 4 plate reader. PBS was set as blank control.

Structure (SMILES) | intracellular localization / cellular uptake (confocal microscopy) (HCT116 p53^+/+ cells [1]) | induction of apoptosis of HCT116 p53+/+ cells (FACS) (HCT116 p53^+/+ cells [2]) | induction of p53, MDM2 and p21 (Western blotting) [3] | apoptosis of HCT116 p53-/- cells (FACS) (HCT116 p53^−/− cells) | cell viability of HCT116 p53-/- cells at high concentration (HCT116 p53^−/−) | α-helix (%) ([4]; Table 3) | α-helix (%) ([4]; Table 7) | solubility [5] [µg/mL]
CC(=O)N[C@H](C(=O)N[C@@H](CO)C(=O)N[C@@H](Cc1ccccc1)C(=O)N[C@H]1CCCCNC(=S)SC[C@@H](C(=O)N[C@@H](CC(C)C)C(=O)N[C@@H](CC(C)C)C(=O)N[C@@H](CO)C(=O)N[C@@H](CCCNC(=N)N)C(N)=O)NC(=O)[C@H](Cc2c[nH]c3ccccc23)NC(=O)[C@H](Cc2ccc(O)cc2)NC(=O)[C@H](CCC(N)=O)NC1=O)[C@@H](C)O [^DTCPMI] | diffused intracellular localization, demonstrating efficient cellular uptake | dose-dependent induction of apoptosis | dose-dependent induction of p53, MDM2 and p21 | no obvious apoptosis | significantly reduced cell viability | 76 | 62.2 | 
CC(=O)N[C@H](C(=O)N[C@@H](CO)C(=O)N[C@@H](Cc1ccccc1)C(=O)N[C@@]1(C)CCCC=CCCC[C@@](C)(C(=O)N[C@@H](CC(C)C)C(=O)N[C@@H](CC(C)C)C(=O)N[C@@H](CO)C(=O)N[C@@H](CCCNC(=N)N)C(N)=O)NC(=O)[C@H](Cc2c[nH]c3ccccc23)NC(=O)[C@H](Cc2ccc(O)cc2)NC(=O)[C@H](CCC(N)=O)NC1=O)[C@@H](C)O [^HCPMI] (Ac-TSF[S5]QYW[S5]LLSR-NH2; staple 4-8) |  |  |  |  |  |  |  | ≥ 300
